Source: ChEMBL document CHEMBL1201862, “PubChem BioAssay data set” (2004)
Several values for one entry are separate records, joined by “and”; a condition that tells them apart may be missing. Identical values can stand only once. Activity calls are given as the source filed them.

What was measured:
[1] = biological target: T1, Leucine aminopeptidase (Plasmodium falciparum 3D7, UniProt Q8IL11); assay: P. falciparum M17LAP inhibitors, primary screen, biochemical, fluorogenic H-Leu-NHMec substrate, 1536-well (AID 1619); assay type: functional
T1 sequence (Q8IL11 whole entry): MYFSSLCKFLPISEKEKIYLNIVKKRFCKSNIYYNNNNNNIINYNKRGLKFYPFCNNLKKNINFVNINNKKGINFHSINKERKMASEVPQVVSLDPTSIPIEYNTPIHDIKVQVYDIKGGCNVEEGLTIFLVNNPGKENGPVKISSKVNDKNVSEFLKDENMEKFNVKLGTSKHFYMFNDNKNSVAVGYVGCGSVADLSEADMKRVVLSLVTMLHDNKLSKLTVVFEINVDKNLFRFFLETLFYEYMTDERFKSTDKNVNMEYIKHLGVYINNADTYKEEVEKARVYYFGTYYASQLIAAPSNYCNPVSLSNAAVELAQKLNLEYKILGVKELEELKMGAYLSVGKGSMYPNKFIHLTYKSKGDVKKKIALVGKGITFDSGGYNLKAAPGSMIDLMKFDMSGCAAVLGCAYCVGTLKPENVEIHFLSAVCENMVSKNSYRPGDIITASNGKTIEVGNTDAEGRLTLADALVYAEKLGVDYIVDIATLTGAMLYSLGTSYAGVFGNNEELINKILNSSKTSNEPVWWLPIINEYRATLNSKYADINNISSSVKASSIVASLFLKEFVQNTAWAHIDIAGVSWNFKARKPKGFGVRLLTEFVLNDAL

[2] = biological target: T2, Bcl-2-like protein 10 (Homo sapiens, UniProt Q9HD36); assay: Bcl-B/TR3 peptide binding disruption – biochemical, fluorescence polarization, FITC-TR3 peptide, selectivity assay for Bfl-1 inhibitor project, primary screen (AID 748);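 further: fluorescence polarization from a fluorescein-labelled TR3 peptide binding purified Bcl-B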
T2 sequence (Q9HD36 whole entry): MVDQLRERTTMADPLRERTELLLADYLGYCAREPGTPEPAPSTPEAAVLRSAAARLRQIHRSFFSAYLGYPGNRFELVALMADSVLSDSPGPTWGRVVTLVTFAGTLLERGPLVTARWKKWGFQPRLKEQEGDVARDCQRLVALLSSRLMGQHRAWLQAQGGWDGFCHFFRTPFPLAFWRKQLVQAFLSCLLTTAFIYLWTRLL

[3] = biological target: Large T antigen (Simian virus 40, UniProt P03070); assay type: functional, Betapolyomavirus macacae;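 further: Confirmatory-stage PubChem screen for compounds that inhibit SV40 T antigen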
Chain of Large T antigen (P03070 whole entry): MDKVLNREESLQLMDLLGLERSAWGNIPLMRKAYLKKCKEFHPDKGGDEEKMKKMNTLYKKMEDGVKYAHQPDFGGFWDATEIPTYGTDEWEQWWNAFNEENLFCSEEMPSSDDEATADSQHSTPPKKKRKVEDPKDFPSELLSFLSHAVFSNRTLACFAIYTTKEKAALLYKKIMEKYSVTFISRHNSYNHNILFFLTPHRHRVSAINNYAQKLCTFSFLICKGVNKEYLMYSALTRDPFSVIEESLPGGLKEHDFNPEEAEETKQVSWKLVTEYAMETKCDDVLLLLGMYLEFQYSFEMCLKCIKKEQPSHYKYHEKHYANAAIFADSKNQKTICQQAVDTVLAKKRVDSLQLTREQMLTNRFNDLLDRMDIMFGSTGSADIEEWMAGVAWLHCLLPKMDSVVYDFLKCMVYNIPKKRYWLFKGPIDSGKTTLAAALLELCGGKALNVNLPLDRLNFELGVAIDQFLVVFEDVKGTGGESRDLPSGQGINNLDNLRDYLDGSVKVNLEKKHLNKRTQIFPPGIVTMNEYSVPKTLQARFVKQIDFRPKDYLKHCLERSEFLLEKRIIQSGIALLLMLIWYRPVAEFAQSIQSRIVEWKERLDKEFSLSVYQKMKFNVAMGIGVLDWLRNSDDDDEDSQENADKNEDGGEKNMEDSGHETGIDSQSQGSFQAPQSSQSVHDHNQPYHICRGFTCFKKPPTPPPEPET

[4] = biological target: T3, Alkaline phosphatase, tissue-nonspecific isozyme (Homo sapiens, UniProt P05186); assay: potency against alkaline phosphatase TNAP – biochemical, luminescent, dose response, SAR follow-up (AID 1056)
T3 sequence (P05186 whole entry): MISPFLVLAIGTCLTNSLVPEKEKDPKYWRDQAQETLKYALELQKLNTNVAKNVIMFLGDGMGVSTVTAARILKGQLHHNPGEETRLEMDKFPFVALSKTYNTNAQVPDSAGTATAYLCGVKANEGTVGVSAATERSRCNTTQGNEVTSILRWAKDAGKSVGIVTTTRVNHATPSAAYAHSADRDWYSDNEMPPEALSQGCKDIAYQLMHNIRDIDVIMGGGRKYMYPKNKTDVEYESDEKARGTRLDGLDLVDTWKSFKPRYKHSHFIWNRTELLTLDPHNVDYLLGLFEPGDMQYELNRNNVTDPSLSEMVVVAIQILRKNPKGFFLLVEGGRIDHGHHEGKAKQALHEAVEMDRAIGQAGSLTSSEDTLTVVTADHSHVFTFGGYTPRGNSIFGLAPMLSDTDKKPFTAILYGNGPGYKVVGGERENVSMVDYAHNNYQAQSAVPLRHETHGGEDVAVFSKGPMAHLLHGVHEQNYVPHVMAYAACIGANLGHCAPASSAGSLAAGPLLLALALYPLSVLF

[5] = biological target: Alkaline phosphatase, placental type (Homo sapiens, UniProt P05187); assay: human placental alkaline phosphatase inhibition – biochemical, luminescence, confirmation (AID 1512); assay type: functional
Chain of Alkaline phosphatase, placental type (P05187 whole entry): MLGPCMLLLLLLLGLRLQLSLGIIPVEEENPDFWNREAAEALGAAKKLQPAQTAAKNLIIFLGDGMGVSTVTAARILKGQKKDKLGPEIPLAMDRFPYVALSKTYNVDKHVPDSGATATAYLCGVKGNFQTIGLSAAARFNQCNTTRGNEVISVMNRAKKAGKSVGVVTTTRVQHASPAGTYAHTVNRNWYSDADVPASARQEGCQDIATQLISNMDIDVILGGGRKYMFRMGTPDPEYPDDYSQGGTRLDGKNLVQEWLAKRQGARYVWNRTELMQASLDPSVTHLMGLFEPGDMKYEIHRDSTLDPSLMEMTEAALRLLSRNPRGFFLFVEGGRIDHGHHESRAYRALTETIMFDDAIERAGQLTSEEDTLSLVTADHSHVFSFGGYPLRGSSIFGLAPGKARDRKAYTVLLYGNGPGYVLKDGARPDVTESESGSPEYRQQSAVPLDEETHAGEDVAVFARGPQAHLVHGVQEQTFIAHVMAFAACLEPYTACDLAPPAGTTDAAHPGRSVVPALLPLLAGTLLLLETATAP

[6] = biological target: T4, Protein RecA (Mycobacterium tuberculosis, UniProt P9WHJ3); assay: Fluorescence Cell-Free Homogeneous Dose Retest to Identify Inhibitors of RecA-Intein Splicing Activity. [Related pubchem assays (depositor defined):AID2097, AID2223, AID489010, AID492950]; assay type: functional
T4 sequence (P9WHJ3 whole entry): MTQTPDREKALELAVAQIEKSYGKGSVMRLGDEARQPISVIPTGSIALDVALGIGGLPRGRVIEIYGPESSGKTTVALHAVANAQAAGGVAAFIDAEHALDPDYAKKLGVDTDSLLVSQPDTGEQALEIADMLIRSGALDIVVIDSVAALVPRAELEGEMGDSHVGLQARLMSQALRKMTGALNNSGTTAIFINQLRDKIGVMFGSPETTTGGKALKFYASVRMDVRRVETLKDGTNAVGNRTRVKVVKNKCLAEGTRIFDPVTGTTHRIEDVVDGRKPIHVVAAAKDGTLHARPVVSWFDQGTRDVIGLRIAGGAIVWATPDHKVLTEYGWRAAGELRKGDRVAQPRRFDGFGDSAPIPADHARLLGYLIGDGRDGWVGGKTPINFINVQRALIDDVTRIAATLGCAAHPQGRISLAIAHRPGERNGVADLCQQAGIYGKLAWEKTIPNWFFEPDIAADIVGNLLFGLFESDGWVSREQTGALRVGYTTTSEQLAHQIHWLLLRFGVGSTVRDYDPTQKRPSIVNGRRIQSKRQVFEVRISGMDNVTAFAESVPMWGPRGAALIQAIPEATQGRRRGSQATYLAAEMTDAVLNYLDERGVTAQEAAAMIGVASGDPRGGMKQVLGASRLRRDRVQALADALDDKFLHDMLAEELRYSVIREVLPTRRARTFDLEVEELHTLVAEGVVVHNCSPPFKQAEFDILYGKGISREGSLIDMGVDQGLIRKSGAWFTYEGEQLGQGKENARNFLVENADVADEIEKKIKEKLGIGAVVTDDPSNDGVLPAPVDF

[7] = biological target: T5, Replicative DNA helicase DnaB (Mycobacterium tuberculosis, UniProt P9WMR3); assay: DnaB intein splicing inhibitors, dose response, biochemical, cell-free fluorescence (AID 449749); assay type: functional
T5 sequence (P9WMR3 whole entry): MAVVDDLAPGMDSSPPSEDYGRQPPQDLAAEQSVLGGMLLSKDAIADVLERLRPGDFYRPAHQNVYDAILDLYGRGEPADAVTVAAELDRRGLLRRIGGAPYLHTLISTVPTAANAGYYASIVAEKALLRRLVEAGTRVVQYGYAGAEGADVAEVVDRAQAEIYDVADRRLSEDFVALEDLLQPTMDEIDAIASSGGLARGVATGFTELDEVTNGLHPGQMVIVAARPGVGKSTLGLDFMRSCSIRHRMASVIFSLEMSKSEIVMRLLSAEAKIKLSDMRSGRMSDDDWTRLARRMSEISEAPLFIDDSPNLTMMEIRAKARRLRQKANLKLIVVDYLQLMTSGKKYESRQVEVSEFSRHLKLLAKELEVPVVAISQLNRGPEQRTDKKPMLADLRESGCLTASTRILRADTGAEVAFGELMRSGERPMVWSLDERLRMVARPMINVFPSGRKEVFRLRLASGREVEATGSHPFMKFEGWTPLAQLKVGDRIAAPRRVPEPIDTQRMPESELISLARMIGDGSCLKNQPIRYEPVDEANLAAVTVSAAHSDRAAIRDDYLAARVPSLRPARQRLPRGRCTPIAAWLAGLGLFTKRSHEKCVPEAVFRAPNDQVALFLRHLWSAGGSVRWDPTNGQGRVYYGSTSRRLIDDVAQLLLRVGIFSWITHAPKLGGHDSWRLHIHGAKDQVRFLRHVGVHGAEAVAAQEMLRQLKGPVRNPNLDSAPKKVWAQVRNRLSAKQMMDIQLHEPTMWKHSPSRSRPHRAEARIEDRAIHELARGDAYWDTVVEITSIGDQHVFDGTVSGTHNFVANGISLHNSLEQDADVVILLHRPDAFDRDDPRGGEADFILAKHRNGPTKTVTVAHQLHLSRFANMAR

[8] = biological target: NACHT, LRR and PYD domains-containing protein 1 (Homo sapiens, UniProt Q9C000); assay: NALP1 inhibitors in yeast, dose response, luminescent (AID 488860); assay type: functional
Chain of NACHT, LRR and PYD domains-containing protein 1 (Q9C000 1-1212 limits assumed): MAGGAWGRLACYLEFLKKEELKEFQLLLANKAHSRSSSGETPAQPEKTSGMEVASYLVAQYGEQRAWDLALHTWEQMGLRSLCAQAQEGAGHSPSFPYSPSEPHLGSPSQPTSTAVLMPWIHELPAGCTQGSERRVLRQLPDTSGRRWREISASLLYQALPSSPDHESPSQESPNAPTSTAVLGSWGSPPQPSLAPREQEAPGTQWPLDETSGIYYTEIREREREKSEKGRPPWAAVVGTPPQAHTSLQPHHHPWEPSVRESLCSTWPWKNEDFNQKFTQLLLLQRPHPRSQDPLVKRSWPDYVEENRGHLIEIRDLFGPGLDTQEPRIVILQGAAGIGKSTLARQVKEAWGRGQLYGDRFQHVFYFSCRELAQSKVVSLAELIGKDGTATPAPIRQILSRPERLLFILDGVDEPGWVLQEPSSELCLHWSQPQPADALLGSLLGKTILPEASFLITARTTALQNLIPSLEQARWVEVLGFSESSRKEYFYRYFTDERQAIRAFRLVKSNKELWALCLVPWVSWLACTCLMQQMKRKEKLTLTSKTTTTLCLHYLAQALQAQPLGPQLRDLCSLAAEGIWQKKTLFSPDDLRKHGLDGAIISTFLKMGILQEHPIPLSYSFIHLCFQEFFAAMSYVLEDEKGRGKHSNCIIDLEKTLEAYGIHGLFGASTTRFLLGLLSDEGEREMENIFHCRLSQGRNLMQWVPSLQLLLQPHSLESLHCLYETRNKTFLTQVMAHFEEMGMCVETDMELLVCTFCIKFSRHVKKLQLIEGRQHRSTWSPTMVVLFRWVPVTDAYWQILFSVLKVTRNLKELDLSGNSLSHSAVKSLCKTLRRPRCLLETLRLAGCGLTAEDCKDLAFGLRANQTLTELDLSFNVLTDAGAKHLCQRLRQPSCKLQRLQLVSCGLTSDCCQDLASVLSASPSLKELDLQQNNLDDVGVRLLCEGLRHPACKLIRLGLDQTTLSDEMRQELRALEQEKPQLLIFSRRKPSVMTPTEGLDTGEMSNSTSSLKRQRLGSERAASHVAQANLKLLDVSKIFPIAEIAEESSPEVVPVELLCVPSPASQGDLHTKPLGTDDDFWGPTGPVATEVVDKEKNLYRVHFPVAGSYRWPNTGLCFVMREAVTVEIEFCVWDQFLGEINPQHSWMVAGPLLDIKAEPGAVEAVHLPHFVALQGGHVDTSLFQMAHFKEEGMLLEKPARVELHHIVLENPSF
Chain of NACHT, LRR and PYD domains-containing protein 1 (Q9C000 1213-1473 limits assumed): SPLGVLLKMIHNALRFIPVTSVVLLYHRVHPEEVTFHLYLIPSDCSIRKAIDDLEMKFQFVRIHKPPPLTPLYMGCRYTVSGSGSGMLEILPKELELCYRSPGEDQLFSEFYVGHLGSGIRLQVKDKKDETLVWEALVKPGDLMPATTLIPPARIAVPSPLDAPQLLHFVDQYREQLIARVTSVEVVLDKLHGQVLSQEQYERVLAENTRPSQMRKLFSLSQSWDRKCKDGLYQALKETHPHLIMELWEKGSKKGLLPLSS

[9] = biological target: T6, Bifunctional protein GlmU (Mycobacterium tuberculosis, UniProt P9WMN3); assay: Inhibitors of Mycobacterial Glucosamine-1-phosphate acetyl transferase (GlmU). Secondary screen.; design: species or system Mycobacterium tuberculosis H37Rv
T6 sequence (P9WMN3 whole entry): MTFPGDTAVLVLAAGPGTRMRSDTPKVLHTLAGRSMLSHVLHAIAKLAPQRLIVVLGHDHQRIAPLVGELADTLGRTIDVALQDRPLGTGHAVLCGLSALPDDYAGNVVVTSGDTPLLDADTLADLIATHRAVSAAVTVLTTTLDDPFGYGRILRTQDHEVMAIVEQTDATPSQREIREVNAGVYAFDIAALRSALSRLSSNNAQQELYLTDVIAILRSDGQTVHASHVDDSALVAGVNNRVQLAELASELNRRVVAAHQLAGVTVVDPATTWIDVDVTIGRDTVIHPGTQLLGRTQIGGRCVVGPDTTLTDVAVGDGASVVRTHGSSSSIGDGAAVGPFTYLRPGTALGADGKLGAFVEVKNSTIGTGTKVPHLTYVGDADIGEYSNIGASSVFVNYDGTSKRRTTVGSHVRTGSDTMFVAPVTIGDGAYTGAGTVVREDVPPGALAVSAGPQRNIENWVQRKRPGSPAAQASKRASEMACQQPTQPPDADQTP

[10] = viability of HCT116 lacking mutant beta-catenin – cell-based, human colon tumor, dose response (AID 1045); assay type: functional;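 further: HCT116 colon tumor cells with beta catenin knocked out; cells exposed to compound for 60 hours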
[11] = viability of PTEN-deleted HCT116 cells – cell-based, HCT116 PTEN knockout, dose response (AID 1047); assay type: functional;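 further: HCT116 colon tumor cells with PTEN knocked out; cells exposed to compound for 60 hours before readout; potency for loss of cell viability measured by luminescence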
[12] = system: Saccharomyces cerevisiae; assay: S. cerevisiae Caspase-1/ASC signal blockers IC50, NALP1 inhibitor project selectivity test (AID 488863); assay type: functional, organism-based
[13] = biological target: T7, Heat shock factor protein 1 (Mus musculus, UniProt P38532); assay: enhancement of HSF1-driven luciferase signal – cell-based, NIH3T3, luminescence, dose retest, confirmation (AID 435004); assay type: functional;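 further: stress induced by proteasome inhibitor MG132 added 30 min after compound; luciferase reporter driven by HSF1 response element in NIH3T3 cells; actives raise luminescence as potentiators of the MG132 stress response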
T7 sequence (P38532 whole entry): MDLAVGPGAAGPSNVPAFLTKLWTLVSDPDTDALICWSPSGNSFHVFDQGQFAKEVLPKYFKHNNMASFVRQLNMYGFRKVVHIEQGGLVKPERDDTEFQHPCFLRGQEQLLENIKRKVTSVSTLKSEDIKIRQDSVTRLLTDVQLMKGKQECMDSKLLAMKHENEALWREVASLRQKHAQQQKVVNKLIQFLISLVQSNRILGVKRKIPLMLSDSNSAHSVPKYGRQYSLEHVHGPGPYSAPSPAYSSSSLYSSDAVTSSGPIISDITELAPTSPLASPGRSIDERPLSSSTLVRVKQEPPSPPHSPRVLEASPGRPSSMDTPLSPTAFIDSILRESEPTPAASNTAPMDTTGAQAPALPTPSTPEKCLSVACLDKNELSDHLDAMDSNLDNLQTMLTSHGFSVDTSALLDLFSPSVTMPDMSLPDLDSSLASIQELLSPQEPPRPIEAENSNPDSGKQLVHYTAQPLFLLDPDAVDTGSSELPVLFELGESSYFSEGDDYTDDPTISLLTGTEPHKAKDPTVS

[14] = biological target: CAAX prenyl protease 2 (Saccharomyces cerevisiae S288c, UniProt Q03530); assay type: biochemical
Chain of CAAX prenyl protease 2 (Q03530 whole entry): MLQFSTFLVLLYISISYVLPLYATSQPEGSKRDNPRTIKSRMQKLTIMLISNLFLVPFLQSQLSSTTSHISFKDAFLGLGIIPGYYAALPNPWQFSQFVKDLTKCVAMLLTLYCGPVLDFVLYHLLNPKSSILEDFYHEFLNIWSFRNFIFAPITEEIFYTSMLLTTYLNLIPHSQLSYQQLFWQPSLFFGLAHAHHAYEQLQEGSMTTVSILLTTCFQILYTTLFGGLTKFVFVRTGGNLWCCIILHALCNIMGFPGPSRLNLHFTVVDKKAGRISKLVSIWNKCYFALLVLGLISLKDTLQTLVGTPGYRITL

[15] = biological target: Polyadenylate-binding protein 1 (Homo sapiens, UniProt P11940); assay: PABP inhibition in translation initiation, SAR follow-up (AID 435018); assay type: functional
Chain of Polyadenylate-binding protein 1 (P11940 whole entry): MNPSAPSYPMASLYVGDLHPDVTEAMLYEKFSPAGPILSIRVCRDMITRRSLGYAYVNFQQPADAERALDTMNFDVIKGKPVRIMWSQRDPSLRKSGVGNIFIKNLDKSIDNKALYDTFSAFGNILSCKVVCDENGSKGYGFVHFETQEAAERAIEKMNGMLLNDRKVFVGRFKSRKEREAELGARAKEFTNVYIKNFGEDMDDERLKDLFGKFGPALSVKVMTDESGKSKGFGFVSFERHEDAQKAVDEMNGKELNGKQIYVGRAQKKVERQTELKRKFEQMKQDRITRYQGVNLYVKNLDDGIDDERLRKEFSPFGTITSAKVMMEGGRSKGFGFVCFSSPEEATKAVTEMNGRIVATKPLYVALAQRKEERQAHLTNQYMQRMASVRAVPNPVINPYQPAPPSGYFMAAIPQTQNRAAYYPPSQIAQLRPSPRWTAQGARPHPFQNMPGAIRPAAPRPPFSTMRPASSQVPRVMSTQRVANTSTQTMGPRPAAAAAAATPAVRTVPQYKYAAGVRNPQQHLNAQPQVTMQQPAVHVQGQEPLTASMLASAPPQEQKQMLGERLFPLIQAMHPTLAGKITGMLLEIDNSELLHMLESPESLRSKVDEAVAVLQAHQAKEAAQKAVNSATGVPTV

[16] = biological target: Eukaryotic translation initiation factor 4H (Homo sapiens, UniProt Q15056); assay: inhibitors of translation initiation factor eIF4H – SAR follow-up (AID 435011); assay type: functional
[17] = biological target: DNA dC->dU-editing enzyme APOBEC-3A (Homo sapiens, UniProt P31941); assay: Dose Response confirmation of small molecule APOBEC3A DNA Deaminase Inhibitors via a fluorescence-based single-stranded DNA deaminase assay. [Related pubchem assays (depositor defined):AID493011, AID493024]; assay type: functional
Chain of DNA dC->dU-editing enzyme APOBEC-3A (P31941 whole entry): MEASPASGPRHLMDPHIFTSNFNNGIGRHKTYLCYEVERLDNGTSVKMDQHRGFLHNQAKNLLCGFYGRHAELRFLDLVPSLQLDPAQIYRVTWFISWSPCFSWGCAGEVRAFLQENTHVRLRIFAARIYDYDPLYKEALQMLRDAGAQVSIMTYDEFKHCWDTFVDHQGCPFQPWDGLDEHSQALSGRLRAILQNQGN

[18] = biological target: DNA dC->dU-editing enzyme APOBEC-3G (Homo sapiens, UniProt Q9HC16); assay type: functional;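 further: Dose-response counterscreen measuring inhibition of APOBEC3G DNA deaminase activity, run while confirming APOBEC3A inhibitors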
Chain of DNA dC->dU-editing enzyme APOBEC-3G (Q9HC16 whole entry): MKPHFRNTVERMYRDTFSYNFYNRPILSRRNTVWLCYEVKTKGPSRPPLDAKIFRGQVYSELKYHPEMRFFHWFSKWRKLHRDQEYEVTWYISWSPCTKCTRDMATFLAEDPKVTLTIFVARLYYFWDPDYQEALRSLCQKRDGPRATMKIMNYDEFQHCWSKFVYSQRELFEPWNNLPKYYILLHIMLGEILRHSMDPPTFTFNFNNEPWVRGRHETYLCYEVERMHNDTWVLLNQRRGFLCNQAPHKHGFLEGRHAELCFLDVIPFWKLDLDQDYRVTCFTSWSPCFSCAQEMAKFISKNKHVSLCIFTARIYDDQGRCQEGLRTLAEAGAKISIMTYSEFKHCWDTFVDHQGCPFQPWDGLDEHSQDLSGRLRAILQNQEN

[19] = biological target: Voltage-dependent T-type calcium channel subunit alpha-1H (Homo sapiens, UniProt O95180); assay: human CACNA1H calcium influx blockade – cell-based, synthetic library set 1, calcium flux (AID 493022); assay type: functional

In the case of `C=CCn1c(SCC(=O)c2ccc(O)c(O)c2)nnc1-c1ccccc1OC`, the IC50 [1] was 22.8 µM (active), the IC50 [2] was > 100 µM (inactive) and the IC50 [3] was 14.7 µM (active). The IC50 [4] was > 100 µM (inactive) and 44.8 µM (active) and the IC50 [5] was 2.6 µM (active) and 2.79 µM (active).
With `Cn1cnc([N+](=O)[O-])c1S(=O)(=O)c1ccc(Cl)cc1` the EC50 [6] was 8.29 µM (active), the AC50 [7] was 19.5 µM (active) and the IC50 [8] was 17.7 µM (active). The IC50 [9] was 101 µM (active), the EC50 [10] was 5.88 µM (active) and the EC50 [11] was 6.79 µM (active). For the same compound, the IC50 [12] was 19.8 µM (active) and the EC50 [13] was 17.8 µM (active).
In the case of `O=C(c1cnc(Cl)c(Cl)c1)N1CCC(Cc2ccccc2)CC1`, the AC50 [14] was 18.2 µM (active).
For `CCN1C(=O)CC(C(=O)Nc2ccc(F)cc2)S/C1=N\c1ccccc1OC` (centres undefined), the IC50 [15] was > 100 µM (inactive) and the IC50 [16] was > 100 µM (inactive).
For `Cc1n(Cc2ccccc2)c2ccc(Cl)cc2[n+]1C`, the IC50 [17] was 2.46 µM (active) and the IC50 [18] was 4.75 µM (active).
In the case of `O=C(COc1ccc(F)c(Cl)c1)Nc1nnc(-c2ccc(F)cc2)o1`, the EC50 [19] was 1.7 µM (active).
